Data reported in patent US20220127297A1, “Novel Antibacterial 3"-Derivatives Of 4,6-Disubstituted 2,5-Dideoxystreptamine Aminoglycoside Antibiotics” (AGILeBiotics B.V., priority 2018, published 2022).
In brackets after ≈: the same amount, converted by molar mass. Like-named read-outs stand apart in the source and are kept apart here.

Assays:
E. coli ATCC25922 strain = test: MIC 50, broth micro-dilution, wild-type Escherichia coli; assay type: cell-based; conditions: MH2, 18 h
From the text: 3.1 Against E. coli Strains
(§1) Tested reference compounds. Amikacin sulfate (Cat. No. 01693, Chem-Impex), Gentamicin sulfate (Cat. No. G4918, Sigma Aldrich).
Microbial strains. E. coli ATCC 25922, E. coli ATCC 25922/pET-9b(+), E. coli ATCC 25922/pAT21-1, E. coli ATCC 25922/pBluescript::AAC(6′)-Ie/APH(2″)-Ia, E. coli ATCC 25922/pBlue_lpp_aacC3_rrnC, E. coli ATCC 25922/pSET152.
Culture media and equipment. BBL™ Mueller Hinton Broth 2 (Lot. BCBW1143, Cat. No. 70192, Sigma); Kanamycin A (Cat. No. A1493, AppliChem); 96-well deep well plate, 1 mL (Cat. No. 0030506.200, Eppendorf); Plate lids (Cat. No. 0030131.525, Eppendorf); 96-well plate, F-bottom (Cat. No. 781602, Brand; Incubator, Infors Multitron Pro); Laminar flow (Heraeus KS12); UV/VIS meter (Eppendorf BioPhotometer Plus); Platereader (Tecan Sunrise).
(§2) Compound preparation. Compounds were prepared in MH2 media at a concentration of 5 mM and stored at 4° C. For testing, solutions of 128 μM were prepared in MH2. Out of these working solutions, 400 μL was transferred to wells in the first column of 96-well deep well plates. Each compound was transferred in triplicate. Plates were previously filled with 200 μL of MH2 media in all wells except for the wells in the first column. After compound and antibiotic addition, the compounds were serial two-fold diluted by transferring 200 μL from the first to the second column, then from the second to the third column and so on. Finally, 200 μL was removed from the last column.
Inoculum preparation. Microorganisms used were all revived from 20% glycerol (40% v/v glycerol in water was diluted with MH2) storage at −80° C. by inoculating them in 5 mL MH2. inoculums of E. coli containing a plasmid were selected for by adding 50 μg/mL KanaA. The Inoculums were grown to an optical density (measured by UV/Vis spectroscopy) of 0.6-0.8 at 600 nm. Out of these suspensions, actual inoculums were prepared by diluting them to an optical density (OD) of 0.1 in MH2 media. From these inoculums, 200 μL was transferred to each well, resulting in a final compound concentration range of 64 μM-31.3 nM. All plates were incubated at 900 rpm and 70% rH for 18 h at 37° C.
(§3) MIC determination. After 18 h of growth, 200 μL was transferred to a 96-well F-bottom plate. The optical density was determined by a plate reader at 600 nm, with 10 s shaking before reading. Triplicate measurements were averaged, and a growth curve was plotted in Microsoft Excel. The first column in which the growth reached half the value of maximum growth was determined as the MIC50 value for that particular compound.
(§4) MIC50. The MIC50 of a compound was assigned at which the bacterial growth reached half the value of maximum growth.

A. baumannii DSM 105126 = test: MIC 50, broth micro-dilution, DSM strains; assay type: cell-based, Acinetobacter baumannii
From the text: (§5) 3.2 Against Selected Bacteria of the ESKAPE Panel and Enterococcus faecalis (DSM Strains)
as §1
(§6) Microbial strains. Enterococcus faecalis DSM 2570, Klebsiella pneumoniae DSM 26371, Acinetobacter baumannii DSM 105126, Enterobacter cloacae 3MRGN (clinical bronchial aspirate isolate).
(§7) Culture media and equipment. BBL™ Mueller Hinton Broth 2 (Lot. BCBW1143, Cat. No. 70192, Sigma); Trypcase Soy Blood-agar plates (Cat. No. 43001, Biomérieux); Cryoinstant (contains 15% glycerol; Cat. No. 822070ZA, VWR International); GasPak™ EZ Standard Incubation Container (Cat. No. 260671, Becton Dickinson); GasPak™ EZ Campy Container System Sachets (Cat. No. 260680, Becton Dickinson); 96-well deep well plate, 1 mL (Cat. No. 0030506.200, Eppendorf); Plate lid (Cat. No. 0030131.525, Eppendorf); 96-well plate, F-bottom (Cat. No. 260860, Nunc); Incubator (Sartorius Certomat BS-1); Laminar flow (Heraeus HS12); UV/VIS meter (Perkin Elmer Lambda Bio+); Platereader (Tecan Infinite M200 Pro).
as §2, with “MH2, for tests against E. faecalis a solution of 512 μM was prepared.” for “MH2.”
(§8) Inoculum preparation. Microorganisms used were all revived from 15% glycerol storage in Croinstant tubes at −28° C. by plating them on blood agar plates. A. baumanni, and E. cloacae were grown aerobically at 37° C., E. faecalis was grown microaerophilically at 37° C., and K. pneumoniae was grown aerobically at 37° C. Plates were stored at 4° C. for up to two weeks, after which new plates were prepared from −28° C. A single colony was inoculated in MH2 media and grown at 37° C. and 200 rpm to an optical density (measured by UV/Vis spectroscopy) of 0.6-0.8 at 600 nm. Out of these suspensions, actual inoculums were prepared by diluting them to an optical density of 0.1 in MH2 media. From these inoculums, 200 μL was transferred to each well, resulting in a final compound concentration range of 64 μM-31.3 nM for, K. pneumoniae, A. baumanni, and E. cloacae, and 256 μM-125 nM for E. faecalis. Plates inoculated with E. faecalis were placed inside a GasPak™ Container System with GasPak™ Campy Container System sachets. All plates were incubated at 200 rpm for 18 h under the microorganism culturing conditions mentioned above.
as §3, with “in” for “in Microsoft”
as §4

[1] = tested on: Enterobacter cloacae 3MRGN (clinical bronchial aspirate isolate); test: MIC 50, broth micro-dilution, clinical isolate; assay type: cell-based; conditions: E. Cloacae clinical isolate
From the text: as §5, §1, §6, §7
as §2, with “MH2, for tests against E. faecalis a solution of 512 μM was prepared.” for “MH2.”
as §8
as §3, with “in” for “in Microsoft”
as §4

[2] = Escherichia coli, ATCC25922, 18 h
[3] = Acinetobacter baumannii, DSM105126, read-out: MIC 50
[4] = Enterobacter cloacae, read-out: MIC 50

## NCCC(O)C(=O)NC1CC(N)C(OC2OC(CN)C(O)C(O)C2N)C(F)C1OC1OC(CO)C(O)C(N)C1O (stereo not drawn) [ABX4007, KanaB-AHB-F]
E. coli ATCC25922 strain
  MIC50: 1 µM (≈ 0.587 µg/mL)
A. baumannii DSM 105126
  MIC50: 0.5 µM (≈ 0.293 µg/mL)
[1]
  MIC50: 1 to 2 µM

## N=C(N)NC1[C@@H](O)C(OC2[C@@H](O)[C@H](O[C@H]3OC(CN)[C@@H](O)[C@H](O)C3N)C(N)C[C@H]2NC(=O)[C@@H](O)CCN)O[C@H](CO)[C@H]1O (stereo partly drawn) [ABX4009, KanaB-AHB-Gua]
E. coli ATCC25922 strain
  MIC50: 2 µM (≈ 1.25 µg/mL)
A. baumannii DSM 105126
  MIC50: 0.5 µM (≈ 0.313 µg/mL)
[1]
  MIC50: 2 µM (≈ 1.25 µg/mL)

## NCC[C@H](O)C(=O)N[C@@H]1CC(N)[C@@H](O[C@H]2OC(CN)[C@@H](O)CC2N)[C@H](O)C1OC1O[C@H](CO)[C@@H](O)C(N)[C@H]1O (stereo partly drawn) [ABX5004, Tobra-AHB]
E. coli ATCC25922 strain
  MIC50: 2 µM (≈ 1.14 µg/mL)
A. baumannii DSM 105126
  MIC50: 0.5 µM (≈ 0.284 µg/mL)
[1]
  MIC50: 1 µM (≈ 0.569 µg/mL)

## N=C(N)NC1[C@@H](O)C(OC2[C@@H](O)[C@H](O[C@H]3OC(CN)[C@@H](O)CC3N)C(N)C[C@H]2NC(=O)[C@@H](O)CCN)O[C@H](CO)[C@H]1O (stereo partly drawn) [ABX5005, Tobra-AHB-Gua]
E. coli ATCC25922 strain
  MIC50: 1 to 2 µM
A. baumannii DSM 105126
  MIC50: 0.25 µM (≈ 0.153 µg/mL)
[1]
  MIC50: 1 µM (≈ 0.611 µg/mL)

## N=C(N)NC1C(O)[C@@H](CO)OC(OC2C(F)[C@H](O[C@H]3OC(CN)[C@@H](O)CC3N)C(N)C[C@H]2NC(=O)[C@@H](O)CCN)[C@@H]1O (stereo partly drawn) [ABX5006, Tobra-AHB-F-Gua]
E. coli ATCC25922 strain; [2]
  MIC50: < 0.25 µM
A. baumannii DSM 105126; [3]
  MIC50: 0.0625 µM (≈ 0.0383 µg/mL)
[1]; [4]
  MIC50: 0.25 to 0.5 µM (≈ 0.153 to 0.306 µg/mL)

## N=C(NCCN)NC1C(O)[C@@H](CO)OC(OC2C(F)[C@H](O[C@H]3OC(CN)[C@@H](O)CC3N)C(N)C[C@H]2NC(=O)[C@@H](O)CCN)[C@@H]1O (stereo partly drawn) [ABX5020, Tobra-AHB-F-Gua-2-amino-ethyl]
E. coli ATCC25922 strain; [2]
  MIC50: 0.5 µM (≈ 0.328 µg/mL)
A. baumannii DSM 105126; [3]
  MIC50: 0.0625 to 0.125 µM (≈ 0.041 to 0.082 µg/mL)
[1]; [4]
  MIC50: 0.5 µM (≈ 0.328 µg/mL)

## NCC[C@H](O)C(=O)N[C@@H]1CC(N)[C@@H](O[C@H]2OC(CN)[C@@H](O)CC2N)[C@H](F)C1OC1O[C@H](CO)[C@@H](O)C(N)[C@H]1O (stereo partly drawn) [ABX5024, Tobra-AHB-F]
E. coli ATCC25922 strain
  MIC50: 1 µM (≈ 0.571 µg/mL)
A. baumannii DSM 105126
  MIC50: 0.125 µM (≈ 0.0713 µg/mL)
[1]
  MIC50: 1 µM (≈ 0.571 µg/mL)

## CC(C)(C)CCNC(=N)NC1[C@@H](O)C(OC2[C@@H](F)[C@H](O[C@H]3OC(CN)[C@@H](O)CC3N)C(N)C[C@H]2NC(=O)[C@@H](O)CCN)O[C@H](CO)[C@H]1O (stereo partly drawn) [ABX5025, Tobra-AHB-F-Gua 2-tBu-ethyl]
E. coli ATCC25922 strain; [2]
  MIC50: 0.25 to 0.5 µM (≈ 0.174 to 0.348 µg/mL)
A. baumannii DSM 105126; [3]
  MIC50: 0.25 µM (≈ 0.174 µg/mL)
[1]; [4]
  MIC50: 0.5 to 1 µM (≈ 0.348 to 0.697 µg/mL)

## N=C(NC[C@@H]1CCCN1)NC1[C@@H](O)C(OC2[C@@H](F)[C@H](O[C@H]3OC(CN)[C@@H](O)CC3N)C(N)C[C@H]2NC(=O)[C@@H](O)CCN)O[C@H](CO)[C@H]1O (stereo partly drawn) [ABX5026, Tobra-AHB-F-Gua (S) pyrrolidine-2-yl-methyl]
E. coli ATCC25922 strain; [2]
  MIC50: 0.25 µM (≈ 0.174 µg/mL)
A. baumannii DSM 105126; [3]
  MIC50: 0.0312 to 0.0625 µM (≈ 0.0217 to 0.0435 µg/mL)
[1]; [4]
  MIC50: 0.25 µM (≈ 0.174 µg/mL)
